The source of these data is ChEMBL document CHEMBL1909046, “DrugMatrix in vitro pharmacology data”.

In general, IC50 refers to the concentration at which inhibition is half-maximal. One may read the Ki as a dissociation constant, usually derived from enzyme kinetics or from competition with a known ligand.

A short description of experiment [1]: DRUGMATRIX: Nicotinic Acetylcholine radioligand binding (ligand: [125I] Epibatidine). The class given is cell membranes, Membrane. To be noted: imr-32; Not Active = under 50% inhibition at 10 µM.
Experiment [2] addresses T1, 5-hydroxytryptamine receptor 1A (Rattus norvegicus, UniProt P19327).
T1 sequence (P19327 whole entry): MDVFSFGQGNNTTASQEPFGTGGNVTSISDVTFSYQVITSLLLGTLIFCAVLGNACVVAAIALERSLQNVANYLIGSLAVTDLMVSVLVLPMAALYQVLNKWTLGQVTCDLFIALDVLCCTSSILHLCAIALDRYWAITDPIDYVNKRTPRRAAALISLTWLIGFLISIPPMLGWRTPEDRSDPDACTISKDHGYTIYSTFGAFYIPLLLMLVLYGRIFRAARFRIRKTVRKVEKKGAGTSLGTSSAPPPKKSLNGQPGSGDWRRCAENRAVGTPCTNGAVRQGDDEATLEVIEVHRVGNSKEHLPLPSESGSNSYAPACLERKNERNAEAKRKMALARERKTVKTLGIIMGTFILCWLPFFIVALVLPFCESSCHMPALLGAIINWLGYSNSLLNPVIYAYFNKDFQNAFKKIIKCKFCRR
In kind it is cell membranes, CHO-K1, Membrane.

A further experiment has as its target T2, Caspase-1 (Homo sapiens, UniProt P29466).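 Note: Caspase-1 enzyme inhibition assay with a peptide substrate; in other assays of this panel Not Active means under 50% inhibition at 10 µM.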
T2 sequence (P29466 whole entry): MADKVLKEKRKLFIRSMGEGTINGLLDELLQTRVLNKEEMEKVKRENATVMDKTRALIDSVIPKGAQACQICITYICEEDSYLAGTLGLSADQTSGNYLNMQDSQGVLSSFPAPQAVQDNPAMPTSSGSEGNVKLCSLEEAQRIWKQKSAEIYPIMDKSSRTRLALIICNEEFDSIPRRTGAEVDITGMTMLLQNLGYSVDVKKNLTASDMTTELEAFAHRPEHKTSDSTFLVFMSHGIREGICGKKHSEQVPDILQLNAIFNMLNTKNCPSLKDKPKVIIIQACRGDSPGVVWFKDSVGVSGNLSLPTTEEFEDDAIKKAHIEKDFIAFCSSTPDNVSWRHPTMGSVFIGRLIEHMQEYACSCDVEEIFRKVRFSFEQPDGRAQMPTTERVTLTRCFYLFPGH
More on the design: species or system Escherichia coli.

Experiment [3] deals with Platelet-activating factor receptor (Homo sapiens, UniProt P25105). In kind it is tissue-based.
Sequence of Platelet-activating factor receptor (P25105 whole entry): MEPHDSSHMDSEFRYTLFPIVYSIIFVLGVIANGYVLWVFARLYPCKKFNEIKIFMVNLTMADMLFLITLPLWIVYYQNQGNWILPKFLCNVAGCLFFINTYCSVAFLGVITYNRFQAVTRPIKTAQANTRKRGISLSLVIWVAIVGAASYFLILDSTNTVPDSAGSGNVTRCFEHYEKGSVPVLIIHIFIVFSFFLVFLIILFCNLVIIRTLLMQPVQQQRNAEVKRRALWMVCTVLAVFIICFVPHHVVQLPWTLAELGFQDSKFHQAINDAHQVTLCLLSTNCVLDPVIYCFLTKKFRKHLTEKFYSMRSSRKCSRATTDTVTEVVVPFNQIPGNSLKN
The target in experiment [4] is Sodium-dependent dopamine transporter (Homo sapiens, UniProt Q01959). Kind of experiment: DRUGMATRIX: Dopamine Transporter radioligand binding (ligand: [125I] RTI-55). In kind it is cell membranes, CHO-K1, Membrane. To be noted: cho-k1; Not Active = under 50% inhibition at 10 µM.
Sequence of Sodium-dependent dopamine transporter (Q01959 whole entry): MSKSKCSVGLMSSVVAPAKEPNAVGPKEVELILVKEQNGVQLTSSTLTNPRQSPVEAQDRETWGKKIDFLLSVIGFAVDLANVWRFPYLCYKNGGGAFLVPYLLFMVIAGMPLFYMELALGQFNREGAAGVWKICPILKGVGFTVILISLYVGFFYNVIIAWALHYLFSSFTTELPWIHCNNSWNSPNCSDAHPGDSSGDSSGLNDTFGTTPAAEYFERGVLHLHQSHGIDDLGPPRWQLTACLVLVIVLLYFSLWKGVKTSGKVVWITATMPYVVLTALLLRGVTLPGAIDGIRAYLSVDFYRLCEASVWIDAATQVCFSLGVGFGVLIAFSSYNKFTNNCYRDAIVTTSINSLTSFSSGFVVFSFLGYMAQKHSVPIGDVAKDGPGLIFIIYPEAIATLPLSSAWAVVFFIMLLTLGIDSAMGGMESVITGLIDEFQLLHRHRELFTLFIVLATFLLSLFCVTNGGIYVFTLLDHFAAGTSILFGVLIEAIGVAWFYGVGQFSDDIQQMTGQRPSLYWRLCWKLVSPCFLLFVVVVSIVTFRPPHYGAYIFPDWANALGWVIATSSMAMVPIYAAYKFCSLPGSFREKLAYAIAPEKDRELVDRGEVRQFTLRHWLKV
A further experiment addresses T3, Estrogen receptor (Homo sapiens, UniProt P03372).
T3 sequence (P03372 whole entry): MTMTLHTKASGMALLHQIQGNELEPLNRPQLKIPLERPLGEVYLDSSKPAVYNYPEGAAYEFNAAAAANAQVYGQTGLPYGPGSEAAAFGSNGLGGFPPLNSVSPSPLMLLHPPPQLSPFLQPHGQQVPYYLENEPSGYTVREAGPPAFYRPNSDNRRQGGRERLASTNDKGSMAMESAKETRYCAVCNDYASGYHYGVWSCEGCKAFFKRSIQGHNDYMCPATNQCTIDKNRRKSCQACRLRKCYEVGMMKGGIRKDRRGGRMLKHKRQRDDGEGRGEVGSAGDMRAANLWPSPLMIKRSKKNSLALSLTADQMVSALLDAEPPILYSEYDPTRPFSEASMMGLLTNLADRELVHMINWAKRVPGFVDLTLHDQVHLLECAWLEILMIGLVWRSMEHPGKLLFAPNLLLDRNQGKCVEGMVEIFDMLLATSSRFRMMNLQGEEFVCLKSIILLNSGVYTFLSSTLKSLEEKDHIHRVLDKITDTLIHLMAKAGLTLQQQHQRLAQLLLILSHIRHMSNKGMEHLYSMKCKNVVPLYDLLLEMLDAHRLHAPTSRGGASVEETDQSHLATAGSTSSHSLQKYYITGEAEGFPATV
To be noted: sf9.

Experiment [5] in a line: DRUGMATRIX: Leukotriene, BLT (LTB4) radioligand binding (ligand: [3H]LTB4). In kind it is cell membranes, Membrane. To be noted: u-937; Not Active = under 50% inhibition at 10 µM.

Take `COc1ccc(C[C@H]2NC[C@H](O)[C@H]2OC(C)=O)cc1` [ANISOMYCIN]: the IC50 entry (in experiment [1]; in experiment [2] (cho-k1); at Caspase-1; in experiment [3]; in experiment [4]; on Estrogen receptor) was “Not Active” throughout. Further, the IC50 entry in experiment [5] was “Not Active”. The Ki result (in experiment [1]; in experiment [2] (cho-k1); on Caspase-1; in experiment [3]; in experiment [4]; on Estrogen receptor) was “Not Active” throughout. Moreover, the Ki result in experiment [5] is recorded as “Not Active”.
Regarding `C[C@]12CCC(=O)C=C1CC[C@@H]1[C@@H]2CC[C@@]2(C)[C@H]1CC[C@]2(C)O` [METHYLTESTOSTERONE], the IC50 entry (in experiment [1]; in experiment [2] (cho-k1); on Caspase-1; in experiment [3]; in experiment [4]; at Estrogen receptor) was “Not Active” in each case. Besides, the IC50 result in experiment [5] is on record as “Not Active”. For the same compound, the Ki entry in experiment [1] and in experiment [5] was “Not Active” in each case.
Regarding `Cc1c(O)c(=O)ccn1C` [DEFERIPRONE], the IC50 entry (in experiment [1]; in experiment [2] (cho-k1); at Caspase-1; in experiment [3]; in experiment [4]; on Estrogen receptor) was “Not Active” each time. In addition, the IC50 entry in experiment [5] is “Not Active”. The Ki entry in experiment [1] and in experiment [5] was “Not Active” throughout.
As to `CCOc1ccc(NC(C)=O)cc1` [PHENACETIN], the IC50 entry (in experiment [1]; in experiment [2] (cho-k1); on Caspase-1; in experiment [3]; in experiment [4]; against Estrogen receptor) was “Not Active” throughout. In addition, in experiment [5], the IC50 result was “Not Active”. Besides, the Ki entry in experiment [1] and in experiment [5] was “Not Active” each time.
With `CCn1cc(C(=O)O)c(=O)c2cc(F)c(N3CCNCC3)cc21` [NORFLOXACIN], the IC50 entry (in experiment [1]; in experiment [2] (cho-k1); against Caspase-1; in experiment [3]; in experiment [4]; against Estrogen receptor) was “Not Active” throughout. For the same compound, the IC50 entry in experiment [5] is given as “Not Active”. The Ki entry in experiment [1] and in experiment [5] was “Not Active” each time.
For `C=C(C)C1(O)OC(=O)C=C1OC` (stereo not given) [PENICILLIC ACID], the IC50 result (in experiment [1]; in experiment [2] (cho-k1); against Caspase-1; in experiment [3]; in experiment [4]; on Estrogen receptor) was “Not Active” throughout. Moreover, the IC50 entry in experiment [5] is given as “Not Active”. In addition, the Ki entry in experiment [1] and in experiment [5] was “Not Active” each time.
Regarding `CN(C)C(=O)Oc1cc(OC(=O)N(C)C)cc(C(O)CNC(C)(C)C)c1` (stereo not given) [BAMBUTEROL], the IC50 result (in experiment [1]; in experiment [2] (cho-k1); against Caspase-1; in experiment [3]; in experiment [4]; on Estrogen receptor) was “Not Active” throughout. Besides, the half-inhibitory concentration (IC50) entry in experiment [5] is recorded as “Not Active”. The Ki result in experiment [1] and in experiment [5] was “Not Active” each time.
Turning to `CC(C)[C@H]1C(=O)N2CCC[C@H]2[C@]2(O)O[C@](NC(=O)[C@@H]3C=C4c5cccc6[nH]cc(c56)C[C@H]4N(C)C3)(C(C)C)C(=O)N12` [ERGOCORNINE], the IC50 entry in experiment [1] was “Not Active”; in experiment [2] (read-out: IC50), 3.11 nM; at Caspase-1, “Not Active”; in experiment [3] it was “Not Active”; in experiment [4] it was “Not Active”; against Estrogen receptor it was “Not Active”. In experiment [5], the IC50 entry is given as “Not Active”. Further, the Ki entry in experiment [1] was “Not Active”; in experiment [2] (read-out: Ki), 1.78 nM; in experiment [5], “Not Active”.
Turning to LEAD (II) ACETATE, the IC50 entry (in experiment [1]; in experiment [2] (cho-k1); against Caspase-1; in experiment [3]; in experiment [4]; against Estrogen receptor) was “Not Active” in each case. In experiment [5], the IC50 entry is “Not Active”. Besides, the Ki result (in experiment [1]; in experiment [2] (cho-k1); on Caspase-1; in experiment [3]; in experiment [4]; on Estrogen receptor) was “Not Active” each time. Also, the Ki result in experiment [5] is reported as “Not Active”.
Turning to `CC(O)CO` (stereo not given) [PROPYLENE GLYCOL], the IC50 result (in experiment [1]; in experiment [2] (cho-k1); on Caspase-1; in experiment [3]; in experiment [4]; at Estrogen receptor) was “Not Active” throughout. Also, the IC50 result in experiment [5] is recorded as “Not Active”. For the same compound, the Ki entry in experiment [1] and in experiment [5] was “Not Active” each time.
On to `CC1Cc2ccccc2N1NC(=O)c1ccc(Cl)c(S(N)(=O)=O)c1` (stereo not given) [INDAPAMIDE], for which the IC50 result (in experiment [1]; in experiment [2] (cho-k1); against Caspase-1; in experiment [3]; in experiment [4]; against Estrogen receptor) was “Not Active” in each case. In addition, in experiment [5], the IC50 entry is “Not Active”. For the same compound, the Ki entry in experiment [1] and in experiment [5] was “Not Active” each time.
As to `CCC1(c2ccc(N)cc2)CCC(=O)NC1=O` (stereo not given) [AMINOGLUTETHIMIDE], the IC50 entry (in experiment [1]; in experiment [2] (cho-k1); against Caspase-1; in experiment [3]; in experiment [4]; on Estrogen receptor) was “Not Active” each time. The IC50 result in experiment [5] is given as “Not Active”. Besides, the Ki result in experiment [1] and in experiment [5] was “Not Active” throughout.
As for `C1CCC(C(CC2CCCCN2)C2CCCCC2)CC1` (stereo not given) [PERHEXILINE], the IC50 result (in experiment [1]; in experiment [2] (cho-k1); against Caspase-1; in experiment [3]; in experiment [4]; at Estrogen receptor) was “Not Active” each time. Besides, the IC50 entry in experiment [5] is “Not Active”. The Ki entry in experiment [1] and in experiment [5] was “Not Active” throughout.
For the compound `N=C(N)NCCN1CCCCCCC1` [GUANETHIDINE], the IC50 result (in experiment [1]; in experiment [2] (cho-k1); at Caspase-1; in experiment [3]; in experiment [4]; against Estrogen receptor) was “Not Active” in each case. Moreover, the IC50 entry in experiment [5] was “Not Active”. Further, the inhibition constant (Ki) entry in experiment [1] and in experiment [5] was “Not Active” each time.
Turning to `CC(C)CN(C[C@@H](O)[C@H](Cc1ccccc1)NC(=O)O[C@H]1CCOC1)S(=O)(=O)c1ccc(N)cc1`, the IC50 entry (in experiment [1]; in experiment [2] (cho-k1); against Caspase-1; in experiment [3]; in experiment [4]; against Estrogen receptor) was “Not Active” in each case. Moreover, the IC50 result in experiment [5] is given as “Not Active”. Also, the Ki result in experiment [1] and in experiment [5] was “Not Active” in each case.
Take `C[C@H](CCC(=O)O)[C@H]1CC[C@H]2[C@@H]3[C@H](O)C[C@@H]4C[C@H](O)CC[C@]4(C)[C@H]3C[C@H](O)[C@]12C` [CHOLIC ACID]: the concentration for half-maximal inhibition (IC50) entry (in experiment [1]; in experiment [2] (cho-k1); against Caspase-1; in experiment [3]; in experiment [4]; on Estrogen receptor) was “Not Active” in each case. Besides, the IC50 result in experiment [5] is given as “Not Active”. The Ki entry in experiment [1] and in experiment [5] was “Not Active” throughout.
